Assay results from ChEMBL document CHEMBL1201862, “PubChem BioAssay data set” (2004).
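Compound exposure: 48 hours, 5 concentrations, 96-well plates. GI50 = concentration required for 50% inhibition of growth.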 Activity calls are given as the source filed them. Cut-off read from the data, not from the text of the source: active = GI50 up to about 1.1 µM and inactive = higher.

What was measured:
Test in all cases: inhibition of tumour cell growth, NCI panel, 48 h
K562 = test system: K562
IGROV-1 = test system: IGROV-1
CCRF-CEM = test system: CCRF-CEM
SF-539 = test system: SF-539
LOX IMVI = test system: LOX IMVI
SF-268 = test system: SF-268
SNB-19 = test system: SNB-19
UACC-62 = test system: UACC-62
NCI-H23 = test system: NCI-H23
SK-MEL-5 = test system: SK-MEL-5
SF-295 = test system: SF-295
HOP-92 = test system: HOP-92
SNB-75 = test system: SNB-75
SW-620 = test system: SW-620
SK-MEL-2 = test system: SK-MEL-2
MCF7 = test system: MCF7
A498 = test system: A498
U-251 = test system: U-251
CAKI-1 = test system: CAKI-1
BT-549 = test system: BT-549

Row | SMILES | GI50 (K562) | GI50 (IGROV-1) | GI50 (CCRF-CEM) | GI50 (SF-539) | GI50 (LOX IMVI) | GI50 (SF-268) | GI50 (SNB-19) | GI50 (UACC-62) | GI50 (NCI-H23) | GI50 (SK-MEL-5) | GI50 (SF-295) | GI50 (HOP-92) | GI50 (SNB-75) | GI50 (SW-620) | GI50 (SK-MEL-2) | GI50 (MCF7) | GI50 (A498) | GI50 (U-251) | GI50 (CAKI-1) | GI50 (BT-549)
1 | COC(=O)C1(C(=O)OC)Cc2ccc(C)cc2C2=C1C(=O)c1ccccc1C2=O | 18.2 µM (inactive) | 19.4 µM (inactive) | 15.2 µM (inactive) | 23.9 µM (inactive) | 14.9 µM (inactive) | 16 µM (inactive) | 58.6 µM (inactive) | 13.8 µM (inactive) | 18.2 µM (inactive) | 15 µM (inactive) | 21.2 µM (inactive) | 20 µM (inactive) | 12.8 µM (inactive) | 19.8 µM (inactive) | 11.7 µM (inactive) | 15 µM (inactive) |  |  |  | 
2 | OC(CC(O)(C(F)(F)F)C(F)(F)F)C(O)c1ccco1 (stereo not given) | > 10 µM (inactive) | > 10 µM (inactive) | > 10 µM (inactive) | > 10 µM (inactive) | > 10 µM (inactive) | > 10 µM (inactive) | > 10 µM (inactive) | > 10 µM (inactive) | > 10 µM (inactive) | > 10 µM (inactive) | > 10 µM (inactive) |  | > 10 µM (inactive) | > 10 µM (inactive) | > 10 µM (inactive) | > 10 µM (inactive) | 0.22 µM (active) | > 10 µM (inactive) | > 10 µM (inactive) | 
3 | O=C1CS(=O)(=O)C(c2cccc(Oc3ccccc3)c2)N1c1cccc(Cl)c1Cl (stereo not given) | 16.6 µM (inactive) |  | 10.7 µM (inactive) | 20.8 µM (inactive) | 17.7 µM (inactive) | 21.5 µM (inactive) | 39.5 µM (inactive) | 13.5 µM (inactive) |  | 18.2 µM (inactive) | 33.8 µM (inactive) | 7.26 µM (inactive) | 29.3 µM (inactive) | 28.8 µM (inactive) | 19.5 µM (inactive) | 6.11 µM (inactive) |  | 20 µM (inactive) | 31.3 µM (inactive) | 
4 | C(=N\c1ccc(-c2nc3ccccc3s2)cc1)/c1ccco1 | 41.3 µM (inactive) | 58.1 µM (inactive) | 37.6 µM (inactive) | > 100 µM (inactive) | 54.1 µM (inactive) | 48.2 µM (inactive) | > 100 µM (inactive) | 54.2 µM (inactive) | 70.6 µM (inactive) | 33.5 µM (inactive) | 18.9 µM (inactive) | 39.5 µM (inactive) | 85.5 µM (inactive) | > 100 µM (inactive) | 60.3 µM (inactive) |  | 27 µM (inactive) | 47.6 µM (inactive) | 49.1 µM (inactive) | 83.4 µM (inactive)
5 | Cc1c2ccnc(C(N)=O)c2c(C)c2c1[nH]c1ccccc12 | 11 µM (inactive) | 9.2 µM (inactive) | 4.73 µM (inactive) | 6.76 µM (inactive) | 4.65 µM (inactive) | 5.46 µM (inactive) | 8.13 µM (inactive) | 4.92 µM (inactive) | 4.84 µM (inactive) | 6.18 µM (inactive) | 1.53 µM (inactive) |  | 10.6 µM (inactive) | 3.19 µM (inactive) | 13.1 µM (inactive) | 2.39 µM (inactive) | 8.18 µM (inactive) | 8.51 µM (inactive) | 3.83 µM (inactive) | 
6 | Cc1cc(N(CCCCl)CCCCl)ccc1/C=N/c1cccc(Cl)c1 | 7.26 µM (inactive) | 13.2 µM (inactive) |  |  | 13.8 µM (inactive) | 12.2 µM (inactive) | 15.3 µM (inactive) | 0.74 µM (active) | < 0.01 µM (active) | 14.4 µM (inactive) | 17.6 µM (inactive) |  | 12.1 µM (inactive) | 12.3 µM (inactive) | 16.4 µM (inactive) | 16.2 µM (inactive) |  | 15.7 µM (inactive) |  | 
7 | O=C(CC(C(=O)c1cccs1)c1cccs1)c1ccccc1Cl (stereo not given) | 98.4 µM (inactive) | > 100 µM (inactive) | > 100 µM (inactive) | > 100 µM (inactive) | > 100 µM (inactive) | > 100 µM (inactive) | > 100 µM (inactive) | > 100 µM (inactive) | 33 µM (inactive) | > 100 µM (inactive) | > 100 µM (inactive) |  | > 100 µM (inactive) | > 100 µM (inactive) | > 100 µM (inactive) | > 100 µM (inactive) | > 100 µM (inactive) | > 100 µM (inactive) | > 100 µM (inactive) | 
8 | CC(C)(C)C1=C(Br)C(O)(C(C)(C)C)OP1(=O)c1ccccc1 (stereo not given) | > 100 µM (inactive) | > 100 µM (inactive) | > 100 µM (inactive) | > 100 µM (inactive) | > 100 µM (inactive) | > 100 µM (inactive) | > 100 µM (inactive) | > 100 µM (inactive) | > 100 µM (inactive) | > 100 µM (inactive) | > 100 µM (inactive) | > 100 µM (inactive) | > 100 µM (inactive) | > 100 µM (inactive) | > 100 µM (inactive) | 0.805 µM (active) | > 100 µM (inactive) | > 100 µM (inactive) | > 100 µM (inactive) | 
9 | CCN(CCCl)c1ccc(NC(=O)c2cc(C(=O)NCCN(C)C)cc(C(=O)Nc3ccc(N(CC)CCCl)cc3)c2)cc1 | 2.09 µM (inactive) | 6.43 µM (inactive) | 0.0687 µM (active) | 1.62 µM (inactive) | 1.36 µM (inactive) | 0.891 µM (active) | 1.36 µM (inactive) | 4.98 µM (inactive) | 3.33 µM (inactive) | 12.3 µM (inactive) | 9.46 µM (inactive) | 3.74 µM (inactive) | 8.55 µM (inactive) | 1.76 µM (inactive) | 15.7 µM (inactive) | 0.746 µM (active) | 18.5 µM (inactive) | 2.18 µM (inactive) | 27.5 µM (inactive) | 
10 | COc1cc(OC)c(/C=C\c2ccnc3ccccc23)c(OC)c1 | 0.433 µM (active) | 1.45 µM (inactive) | 1.7 µM (inactive) | 3.73 µM (inactive) | 2.73 µM (inactive) | 5.97 µM (inactive) | 5.5 µM (inactive) | 2.49 µM (inactive) | 5.61 µM (inactive) | 1.7 µM (inactive) | 2.53 µM (inactive) | 3.51 µM (inactive) |  | 3.62 µM (inactive) | 3.88 µM (inactive) | 0.569 µM (active) | 2.88 µM (inactive) | 3.81 µM (inactive) | 6.93 µM (inactive) | 
11 | O=C(N/C(=C\c1ccc2c(c1)OCO2)c1nc2ccccc2[nH]1)c1ccccc1 | 24.3 µM (inactive) | 27.7 µM (inactive) | 26.9 µM (inactive) | 24.9 µM (inactive) | 38.5 µM (inactive) | 38.2 µM (inactive) | 36 µM (inactive) | 20.9 µM (inactive) | 18.6 µM (inactive) | 16 µM (inactive) | 43.7 µM (inactive) | 18.8 µM (inactive) | 20.9 µM (inactive) | 33.6 µM (inactive) | 26.4 µM (inactive) |  | 33.1 µM (inactive) | 32 µM (inactive) | 33.6 µM (inactive) | 
12 | N#CCC(=O)N/N=C(/C(=O)Nc1ccccc1)C1C(=O)N(c2ccccc2)N=C1N (stereo not given) | > 100 µM (inactive) | > 100 µM (inactive) | > 100 µM (inactive) | > 100 µM (inactive) | > 100 µM (inactive) | > 100 µM (inactive) | > 100 µM (inactive) | > 100 µM (inactive) | > 100 µM (inactive) | > 100 µM (inactive) | > 100 µM (inactive) | > 100 µM (inactive) | > 100 µM (inactive) | > 100 µM (inactive) | > 100 µM (inactive) |  | > 100 µM (inactive) | > 100 µM (inactive) | > 100 µM (inactive) | 
13 | Cn1c(N/N=C/c2ccccc2)nc(-c2ccc3c(c2)OCO3)c(C#N)c1=O | 87.3 µM (inactive) | 20.9 µM (inactive) | 94 µM (inactive) | > 100 µM (inactive) | 55.6 µM (inactive) | > 100 µM (inactive) | > 100 µM (inactive) | 40.3 µM (inactive) | > 100 µM (inactive) | 69 µM (inactive) | 84.9 µM (inactive) | 2.85 µM (inactive) | > 100 µM (inactive) | > 100 µM (inactive) | > 100 µM (inactive) | > 100 µM (inactive) | 95.9 µM (inactive) | > 100 µM (inactive) | 99.3 µM (inactive) | 
14 | Cc1cc(O)c(C(c2ccncc2)c2c(O)cc(C)[nH]c2=O)c(=O)[nH]1 | > 100 µM (inactive) | > 100 µM (inactive) | > 100 µM (inactive) |  | > 100 µM (inactive) | > 100 µM (inactive) | > 100 µM (inactive) | > 100 µM (inactive) | > 100 µM (inactive) | > 100 µM (inactive) | > 100 µM (inactive) |  |  |  |  | > 100 µM (inactive) |  | > 100 µM (inactive) | 5.12 µM (inactive) | > 100 µM (inactive)
15 | CC(C)N(C(=O)C12C3C4C1(I)C1C2C3(I)C41C(=O)N(C(C)C)C(C)C)C(C)C (stereo not given) | > 43.4 µM (inactive) | > 100 µM (inactive) | > 41.8 µM (inactive) | > 43.9 µM (inactive) | > 43.5 µM (inactive) | > 100 µM (inactive) | > 100 µM (inactive) | > 100 µM (inactive) | > 100 µM (inactive) | > 100 µM (inactive) | > 100 µM (inactive) | > 100 µM (inactive) | > 73.1 µM (inactive) | > 39.2 µM (inactive) | > 100 µM (inactive) |  | > 100 µM (inactive) | > 71 µM (inactive) | > 100 µM (inactive) | 
16 | Nc1nc(=O)c(/N=N/c2ccccc2)c(N)[nH]1 | 11 µM (inactive) | 29.6 µM (inactive) | 36.5 µM (inactive) | 26.4 µM (inactive) | 47.5 µM (inactive) | 28.1 µM (inactive) | > 100 µM (inactive) | 18.6 µM (inactive) | 22.8 µM (inactive) | 51.8 µM (inactive) | 32.7 µM (inactive) | 22.5 µM (inactive) | 3.78 µM (inactive) | 78.2 µM (inactive) | 39.2 µM (inactive) |  | 45.2 µM (inactive) | 14.4 µM (inactive) | 66.7 µM (inactive) | 
